Laboratory results taken from patent publication US20110172296A1, “MODULATION OF TRANSFORMING GROWTH FACTOR-BETA 1 EXPRESSION” (priority 2010, published 2011).
Values joined by “and” are separate entries in the source; they are usually repeats but may differ in a detail not shown here. Identical values can stand only once. In the oligonucleotide strings, read from the 5' end, every base follows the letter of its sugar. An asterisk marks phosphorothioate; unmarked linkages are phosphodiester. Other units and linkages are bracketed, terminal groups are in braces. A string of capitals states the bases alone. e = 2'-O-(2-methoxyethyl) (MOE); [5mC] = 5-methylcytosine; d = 2'-deoxy (DNA)

How the values were obtained:
human TGF-beta1 mRNA [1] = assay: Dose-dependent antisense inhibition of human TGF-beta1 in HuVEC cells, Lipofectamine 2000, 0.9375-30 nM (Example 3); type: cell-based; details: for percent inhibition of TGF-beta1: Lipofectamine 2000; for IC50: Lipofectamine 2000, Example 3
Procedure: Cells were plated at a density of 5,000 cells per well and transfected using Lipofectamine™ 2000 reagent with 0.9375 nM, 1.875 nM, 3.75 nM, 7.5 nM, 15 nM, and 30 nM concentrations of antisense oligonucleotide for 4 hours, as specified in Table 3. After a recovery period of approximately 16 hours, RNA was isolated from the cells and TGF-beta1 mRNA levels were measured by quantitative real-time PCR. Human TGF-beta1 primer probe set RTS 2980 (forward sequence CTCTCCGACCTGCCACAGA, SEQ ID NO: 160; reverse sequence […], SEQ ID NO: 53; probe sequence CCCTATTCAAGACCACCCACCTTCTGGTX, SEQ ID NO: 161) was used to measure mRNA levels. TGF-beta1 mRNA levels were adjusted according to total RNA content, as measured by RIBOGREEN®. Results are presented as percent inhibition of TGF-beta1, relative to untreated control cells.

human TGF-beta1 mRNA [2] = assay: Antisense inhibition of human TGF-beta1 mRNA in HuVEC cells, single 10 nM dose, Lipofectamine 2000 (Example 2); type: cell-based; details: for % inhibition: 10 nM oligonucleotide, HuVEC, relative to untreated control cells; for inhibition of a TGF-beta1 mRNA: threshold lists of Oligo IDs, 10 nM
Method in brief: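 HuVEC cells (5,000/well) transfected with 10 nM 2-13-5 MOE gapmer (phosphorothioate, 5-methylcytosine) via Lipofectamine 2000 for 4 h, then recovered ~24 h. mRNA measured by qRT-PCR, normalized to RIBOGREEN total RNA; percent inhibition versus untreated cells.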

[3] = gapmers targeted to SEQ ID NO: 2
[4] = gapmers targeted to SEQ ID NO: 1

Substance	percent inhibition of TGF-beta1 (human TGF-beta1 mRNA [1]; 0.9375 nM)	percent inhibition of TGF-beta1 (human TGF-beta1 mRNA [1]; 1.875 nM)	percent inhibition of TGF-beta1 (human TGF-beta1 mRNA [1]; 3.75 nM)	percent inhibition of TGF-beta1 (human TGF-beta1 mRNA [1]; 7.5 nM)	percent inhibition of TGF-beta1 (human TGF-beta1 mRNA [1]; 15 nM)	percent inhibition of TGF-beta1 (human TGF-beta1 mRNA [1]; 30 nM)	IC50 (human TGF-beta1 mRNA [1])	% inhibition (human TGF-beta1 mRNA [2]; [3])	inhibition of a TGF-beta1 mRNA (human TGF-beta1 mRNA [2])	% inhibition (human TGF-beta1 mRNA [2]; [4])
414102 (antisense eT*eT*dT*dG*dA*dA*d[5mC]*dT*dA*d[5mC]*dA*dT*dG*dG*dG*eT*e[5mC]*e[5mC]*eT*e[5mC]) [compound 414102]	36%	54%	70%	84%	87%	84%	1.42 nM	86%	60% and 65% and 70% and 75% and 80% and 85%	–
414037 (antisense eG*eG*dG*dT*dG*dT*d[5mC]*d[5mC]*dT*dT*dA*dA*dA*dT*dA*e[5mC]*eA*eG*e[5mC]*e[5mC]) [compound 414037]	56%	74%	87%	93%	93%	92%	–	–	60% and 65% and 70% and 75% and 80% and 85%	89%
414022 (antisense eG*eG*dG*d[5mC]*dT*d[5mC]*d[5mC]*dG*dG*dT*dT*d[5mC]*dT*dG*d[5mC]*eA*e[5mC]*eT*e[5mC]*eT) [compound 414022]	31%	50%	76%	85%	91%	92%	1.67 nM	–	60% and 65% and 70% and 75% and 80%	84%
413970 (antisense eG*e[5mC]*d[5mC]*dT*d[5mC]*dA*dG*dG*d[5mC]*dT*dG*d[5mC]*dT*d[5mC]*d[5mC]*eT*e[5mC]*eG*eG*e[5mC]) [compound 413970]	48%	64%	81%	91%	94%	95%	–	–	60% and 65% and 70% and 75% and 80% and 85%	87%
414058 (antisense eA*eG*dG*dT*d[5mC]*dA*dA*dG*d[5mC]*d[5mC]*dA*dT*dG*dT*dG*eG*e[5mC]*eA*e[5mC]*e[5mC]) [compound 414058]	46%	65%	78%	88%	87%	81%	–	81%	60% and 65% and 70% and 75% and 80%	–
413979 (antisense eG*eG*d[5mC]*dT*d[5mC]*d[5mC]*d[5mC]*dA*dG*d[5mC]*dG*dG*d[5mC]*dA*dA*e[5mC]*eG*eG*eA*eA) [compound 413979]	42%	62%	80%	92%	95%	94%	–	–	60% and 65% and 70% and 75% and 80% and 85%	87%
414062 (antisense e[5mC]*e[5mC]*d[5mC]*d[5mC]*dT*dA*dA*dA*dA*dT*dG*d[5mC]*dA*dG*dA*eG*eT*eA*eA*eG) [compound 414062]	–	–	–	–	–	–	–	72%	60% and 65% and 70%	–
414024 (antisense eG*e[5mC]*dT*d[5mC]*dG*dG*dG*d[5mC]*dT*d[5mC]*d[5mC]*dG*dG*dT*dT*e[5mC]*eT*eG*e[5mC]*eA) [compound 414024]	–	–	–	–	–	–	–	–	60% and 65% and 70% and 75% and 80%	83%
413983 (antisense eG*e[5mC]*dG*d[5mC]*d[5mC]*dT*d[5mC]*d[5mC]*dG*dG*d[5mC]*dT*d[5mC]*d[5mC]*d[5mC]*eA*eG*e[5mC]*eG*eG) [compound 413983]	–	–	–	–	–	–	–	–	60% and 65% and 70% and 75%	78%
414116 (antisense e[5mC]*eT*dG*dG*dA*dT*dG*dA*dG*dA*dG*dT*dT*dT*dA*e[5mC]*eG*eG*eG*e[5mC]) [compound 414116]	–	–	–	–	–	–	–	83%	60% and 65% and 70% and 75% and 80%	–
413984 (antisense e[5mC]*e[5mC]*dG*d[5mC]*dG*d[5mC]*d[5mC]*dT*d[5mC]*d[5mC]*dG*dG*d[5mC]*dT*d[5mC]*e[5mC]*e[5mC]*eA*eG*e[5mC]) [compound 413984]	–	–	–	–	–	–	–	–	60% and 65% and 70%	71%
414120 (antisense e[5mC]*eA*d[5mC]*dA*d[5mC]*d[5mC]*d[5mC]*dT*dG*dG*dA*dA*d[5mC]*dA*dT*eA*e[5mC]*eA*eA*eA) [compound 414120]	–	–	–	–	–	–	–	40%	–	–
414103 (antisense eA*eT*dT*d[5mC]*dA*dA*dG*dT*dA*dA*dG*dG*dT*d[5mC]*dT*eA*e[5mC]*eA*e[5mC]*eA) [compound 414103]	–	–	–	–	–	–	–	58%	–	–
414082 (antisense eG*eA*dG*dA*dG*dG*dG*dA*dA*dG*d[5mC]*d[5mC]*dA*dG*dT*e[5mC]*eT*eG*eA*eG) [compound 414082]	–	–	–	–	–	–	–	19%	–	–
